Results: patent publication US20020160091A1, “Acesulfame salt, process for its preparation and its use” (priority 2001, published 2002)

Legend:
[1] = known property named for comparison; cited from earlier work
[2] = known property named for comparison; cited from earlier work; remark: listed apart in the source
[3] = compared with acesulfame potassium salt

Compound: CC1=CC(=O)NS(=O)(=O)O1.N [acesulfame ammonium salt]
- difference found by the testers in extensive taste tests (acesulfame ammonium versus acesulfame potassium): no difference was found
- sweet taste [3]: exactly the same pleasant sweet taste as the acesulfame potassium salt
- sweetening power [3]: the same sweetening power as the acesulfame potassium salt
- sweetness profile [3]: exactly the same sweetness profile

Compound: CC(=O)O.N [ammonium acetate salt, ammonium acetate]
- hygroscopicity (comparison salt) [1]: hygroscopic

Compound: Cl.N [ammonium chloride salt, ammonium chloride]
- salty-bitter taste (comparison salt) [2]: salty-bitter
